Experimental data from US12048783B2, “2,4-disubstituted pyridines as malodor counteracting ingredients” (FIRMENICH SA, priority 2017, dated 2024).

Biological target: T1, OR4S2 (Homo sapiens, UniProt Q8NH73)
T1 construct: expressed in transfected cells
T1 sequence (Q8NH73 1-311): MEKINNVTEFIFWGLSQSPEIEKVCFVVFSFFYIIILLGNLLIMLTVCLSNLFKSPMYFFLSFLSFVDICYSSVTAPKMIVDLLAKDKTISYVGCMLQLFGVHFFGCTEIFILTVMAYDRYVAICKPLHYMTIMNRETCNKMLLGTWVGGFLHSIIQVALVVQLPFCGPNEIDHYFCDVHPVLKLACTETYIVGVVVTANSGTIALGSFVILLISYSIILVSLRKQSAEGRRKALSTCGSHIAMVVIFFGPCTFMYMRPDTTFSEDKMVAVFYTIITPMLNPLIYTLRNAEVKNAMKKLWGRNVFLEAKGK
Experiment: Inhibition of malodor compound induced olfactory receptor activity in stable cell lines
Type: cell-based
Settings: inhibition of OR4S2 activity in presence of a single activating concentration of DMTS

- EC50: 90.3 µM
SMILES: CCCCCc1cc(C)ccn1
